Source: US8802597B2, “Herbicidal pyrimidines” (E I du Pont de Nemours and Company, priority 2003, dated 2014)
Read-outs that look alike come from different tables or passages of the source.

Assays:
Assay in all cases: Test C pre/postemergence
Type in all cases: in vivo
[1] = system: Surinam grass (Brachiaria decumbens); settings: Urochloa decumbens, scale 0 to 100, read-out: Plant response rating, Surinam Grass; for pest or weed control at 250 g/ha: 250 g ai/ha
How it was run: (§1)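 Applications: preemergence onto seeded soil and postemergence onto 1- to 4-leaf seedlings, compound carried in non-phytotoxic solvent plus surfactant. Kept in greenhouse 12 to 14 days. Scored visually relative to untreated controls, 0 (no effect) to 100 (complete control).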

[2] = system: common (oilseed) sunflower (Helianthus annuus); settings: Helianthus annuus, pre-emergence, Preemergence, read-out: Plant response rating, Sunflower
How it was run: as §1

[3] = system: kochia (Kochia scoparia); settings: Bassia scoparia, post-emergence, Postemergence
How it was run: as §1

[4] = system: goosegrass (Eleusine indica); settings: Eleusine indica; for pest or weed control at 62 g/ha: 62 g ai/ha; for pest or weed control at 125 g/ha: 125 g ai/ha; for pest or weed control at 250 g/ha: 250 g ai/ha; for pest or weed control at 500 g/ha: 500 g ai/ha
How it was run: as §1

[5] = system: velvetleaf (Abutilon theophrasti); settings: Abutilon theophrasti; for pest or weed control at 62 g/ha: 62 g ai/ha; for pest or weed control at 125 g/ha: 125 g ai/ha; for pest or weed control at 250 g/ha: 250 g ai/ha; for pest or weed control at 500 g/ha: 500 g ai/ha
How it was run: as §1

[6] = system: cocklebur (Xanthium strumarium); settings: Xanthium strumarium; for pest or weed control at 62 g/ha: 62 g ai/ha; for pest or weed control at 125 g/ha: 125 g ai/ha; for pest or weed control at 250 g/ha: 250 g ai/ha; for pest or weed control at 500 g/ha: 500 g ai/ha
How it was run: as §1

[7] = system: lambsquarters (Chenopodium album); settings: Chenopodium album; for pest or weed control at 62 g/ha: 62 g ai/ha; for pest or weed control at 125 g/ha: 125 g ai/ha; for pest or weed control at 250 g/ha: 250 g ai/ha; for pest or weed control at 500 g/ha: 500 g ai/ha
How it was run: as §1

[8] = post-emergence, Postemergence, scale 0 to 100 (0 no effect, 100 complete control), read-out: Goosegrass plant response rating
[9] = post-emergence, Postemergence, scale 0 to 100, read-out: Plant response rating, Goosegrass
[10] = pre-emergence, Preemergence, scale 0 to 100, read-out: Plant response rating, Goosegrass
[11] = post-emergence, Postemergence, scale 0 to 100 (0 no effect, 100 complete control), read-out: Velvetleaf plant response rating
[12] = post-emergence, Postemergence, scale 0 to 100, read-out: Plant response rating, Velvetleaf
[13] = pre-emergence, Preemergence, scale 0 to 100, read-out: Plant response rating, Velvetleaf
[14] = post-emergence, Postemergence, scale 0 to 100 (0 no effect, 100 complete control), read-out: Cocklebur plant response rating
[15] = post-emergence, Postemergence, scale 0 to 100, read-out: Plant response rating, Cocklebur
[16] = pre-emergence, Preemergence, scale 0 to 100, read-out: Plant response rating, Cocklebur
[17] = post-emergence, Postemergence, scale 0 to 100 (0 no effect, 100 complete control), read-out: Lambsquarters plant response rating
[18] = post-emergence, Postemergence, scale 0 to 100, read-out: Plant response rating, Lambsquarters
[19] = pre-emergence, Preemergence, scale 0 to 100, read-out: Plant response rating, Lambsquarters

Molecule `Nc1nc(C2CC2)nc(C(=O)OCc2ccccc2)c1Br` [Compound 22, phenylmethyl 6-amino-5-bromo-2-cyclopropyl-4-pyrimidinecarboxylate] has a pest or weed control at 250 g/ha ([1]; post-emergence, Postemergence) of 85%, a pest or weed control at 125 g/ha ([1]; pre-emergence, Preemergence, 125 g ai/ha) of 90% and a pest or weed control at 250 g/ha ([1]; pre-emergence, Preemergence) of 100%. For the same molecule, the pest or weed control at 500 g/ha ([1]; pre-emergence, Preemergence, 500 g ai/ha) was 100%, the pest or weed control at 62 g/ha ([2]; 62 g ai/ha, scale 0 to 100, 0 no effect, 100 complete control) was 90% and the pest or weed control at 125 g/ha ([2]; 125 g ai/ha, scale 0 to 100) was 95%. It also gave a pest or weed control at 250 g/ha ([2]; 250 g ai/ha, scale 0 to 100) of 100%, a pest or weed control at 500 g/ha ([2]; 500 g ai/ha, scale 0 to 100) of 100% and a pest or weed control at 62 g/ha ([3]; 62 g ai/ha, scale 0 to 100 (0 no effect, 100 complete control), read-out: Kochia plant response rating) of 95%. It also gave a pest or weed control at 125 g/ha ([3]; 125 g ai/ha, scale 0 to 100 (0 no effect, 100 complete control), read-out: Kochia plant response rating) of 100%, a pest or weed control at 250 g/ha ([3]; 250 g ai/ha, scale 0 to 100, read-out: Plant response rating, Kochia) of 100% and a pest or weed control at 500 g/ha ([3]; 500 g ai/ha, scale 0 to 100, read-out: Plant response rating, Kochia) of 100%. The pest or weed control at 62 g/ha [4, 8] was 10%, the pest or weed control at 125 g/ha [4, 8] was 10% and the pest or weed control at 250 g/ha [4, 9] was 20%. The pest or weed control at 500 g/ha [4, 9] was 25%, the pest or weed control at 62 g/ha ([4]; pre-emergence, Preemergence, scale 0 to 100, 0 no effect, 100 complete control, read-out: Plant response rating, Goosegrass) was 0% and the pest or weed control at 125 g/ha [4, 10] was 0%. For the same molecule, the pest or weed control at 250 g/ha [4, 10] was 80%, the pest or weed control at 500 g/ha [4, 10] was 100% and the pest or weed control at 62 g/ha [5, 11] was 55%. For the same molecule, the pest or weed control at 125 g/ha [5, 11] was 60%, the pest or weed control at 250 g/ha [5, 12] was 90% and the pest or weed control at 500 g/ha [5, 12] was 95%. It also gave a pest or weed control at 62 g/ha ([5]; pre-emergence, Preemergence, scale 0 to 100, 0 no effect, 100 complete control, read-out: Plant response rating, Velvetleaf) of 90%, a pest or weed control at 125 g/ha [5, 13] of 95% and a pest or weed control at 250 g/ha [5, 13] of 100%. For the same molecule, the pest or weed control at 500 g/ha [5, 13] was 100%, the pest or weed control at 62 g/ha [6, 14] was 90% and the pest or weed control at 125 g/ha [6, 14] was 90%. The pest or weed control at 250 g/ha [6, 15] was 100%, the pest or weed control at 500 g/ha [6, 15] was 100% and the pest or weed control at 62 g/ha ([6]; pre-emergence, Preemergence, scale 0 to 100, 0 no effect, 100 complete control, read-out: Plant response rating, Cocklebur) was 90%. For the same molecule, the pest or weed control at 125 g/ha [6, 16] was 95%, the pest or weed control at 250 g/ha [6, 16] was 100% and the pest or weed control at 500 g/ha [6, 16] was 100%. It also gave a pest or weed control at 62 g/ha [7, 17] of 90%, a pest or weed control at 125 g/ha [7, 17] of 95% and a pest or weed control at 250 g/ha [7, 18] of 95%. It also gave a pest or weed control at 500 g/ha [7, 18] of 95%, a pest or weed control at 62 g/ha ([7]; pre-emergence, Preemergence, scale 0 to 100, 0 no effect, 100 complete control, read-out: Plant response rating, Lambsquarters) of 100% and a pest or weed control at 125 g/ha [7, 19] of 100%. It also gave a pest or weed control at 250 g/ha [7, 19] of 100% and a pest or weed control at 500 g/ha [7, 19] of 100%.
